# Results as given in ChEMBL document CHEMBL1156492, “(R)- and (S)-verapamil differentially modulate the multidrug-resistant protein MRP1” (J Biol Chem, 2007).
# Activity calls are given as the source filed them. No cut-off for these calls is given here.
# Legend:
# Assay type in all cases: functional, cell-based
# [1] = test system: BHK-21; experiment: Decrease in intracellular glutathione concentration in human MRP1 expressing hamster BHK21 cells; conditions: Mesocricetus auratus
# [2] = test system: BHK-21; experiment: Cytotoxicity against hamster BHK21 cells by MTT assay; conditions: Mesocricetus auratus
# [3] = test system: BHK-21; experiment: Cytotoxicity against human MRP1 expressing hamster BHK21 cells at 10 to 20 uM by MTT assay; conditions: Mesocricetus auratus
# [4] = test system: BHK-21; experiment: Cytotoxicity against human MRP1 expressing hamster BHK21 cells after 72 hrs by MTT assay; conditions: Mesocricetus auratus, BHK-21, 72 h
# [5] = test system: BHK-21; experiment: Cytotoxicity against hamster BHK21 cells after 72 hrs by MTT assay; conditions: Mesocricetus auratus, BHK-21, 72 h
# [6] = test system: BHK-21; experiment: Decrease in intracellular glutathione concentration in human MRP1 expressing hamster BHK21 cells at 5 uM; conditions: Mesocricetus auratus
smiles,measurement,setting,value
COc1ccc(CCN(C)CCC[C@](C#N)(c2ccc(OC)c(OC)c2)C(C)C)cc1OC,Activity,[1],inactive
COc1ccc(CCN(C)CCCC(C#N)(c2ccc(OC)c(OC)c2)C(C)C)cc1OC (racemic),Activity,[2],inactive
same,Activity,[3],Active
CC[C@]1(O)C[C@H]2CN(CCc3c([nH]c4ccccc34)[C@@](C(=O)OC)(c3cc4c(cc3OC)N(C=O)[C@H]3[C@@](O)(C(=O)OC)[C@H](OC(C)=O)[C@]5(CC)C=CCN6CC[C@]43[C@@H]65)C2)C1 [VINCRISTINE],IC50,[4],9.42 nM
same,IC50,[5],1.51 nM
COc1ccc(CCN(C)CCC[C@@](C#N)(c2ccc(OC)c(OC)c2)C(C)C)cc1OC,Activity,[1],Active
same,Activity,[6],Active
